Data published in US8541365B2, “Dendrimeric compounds comprising amino acids, hyperbranched core compound, process for preparation of dendrimeric compounds comprising amino acids and hyperbranched core compound, and use thereof” (Instytut Chemii Organicznej, Polska Akademia Nauk, priority 2008, dated 2013).
Read-outs that look alike come from different tables or passages of the source.

How the values were obtained:
[1] = system: S. aureus ATCC 25923; type: cell-based, Staphylococus aureus subsp. aureus
Description: (§1) Titration plates with a, b, d strains were incubated for 18 h at 35° C. under aerobic conditions, and the c strain was incubated for 18 h at 33° C. under aerobic conditions.
b) Staphylococus aureus subsp. aureus ATCC 25923,

[2] = system: S. aureus ATTC 43300; type: cell-based, Staphylococus aureus subsp. aureus
Description: as §1
c) Staphylococus aureus subsp. aureus ATCC 43300,

[3] = system: P. aeruginosa ATTC 27853; type: cell-based, Pseudomonas aeruginosa
Description: as §1
a) Pseudomonas aeruginosa ATCC 27853,

[4] = system: E. coli ATTC 25922; type: cell-based, Escherichia coli
Description: as §1
d) Escherichia coli ATCC 25922

[5] = system: human melanoma cells (MEW 155); conditions: MEW 155 cells, 3 days culture
Description: Human melanoma cells (MEW 155) received from Institute of Oncology were inoculated on Petri dishes (Ø3 cm, Nunc) to the number of about 75 000, suspended in 3 ml of Eagle medium+10% FBS+antibiotics. Immediately after the inoculation, solutions of tested substances were added to the cells (a substance +20 ml PBS) at 0.5 ml per dish. After culturing for 3 days, numbers of cells (all, dead and alive) at each dish were determined with NucleoCounter apparatus (Chemometec).

[6] = S. aureus ATCC 25923, microdilution in CAMHB, 18 h at 35° C.
[7] = S. aureus ATTC 43300, microdilution in CAMHB, 18 h at 33° C.
[8] = P. aeruginosa ATTC 27853, microdilution in CAMHB, 18 h at 35° C.
[9] = E. coli ATTC 25922, microdilution in CAMHB, 18 h at 35° C.

SMILES	Minimal inhibitory concentration (MIC) [1, 6] [μM/L]	Minimal inhibitory concentration (MIC) [2, 7] [μM/L]	Minimal inhibitory concentration (MIC) [3, 8] [μM/L]	Minimal inhibitory concentration (MIC) [4, 9] [μM/L]	also measured
N[C@@H](CCCCNC(=O)OCc1ccccc1Cl)C(=O)NCCNC(=O)CCN(CCCC[C@@H](C(=O)NCCc1c[nH]c2ccccc12)N(CCC(=O)NCCNC(=O)[C@@H](N)CCCCNC(=O)OCc1ccccc1Cl)CCC(=O)NCCNC(=O)[C@@H](N)CCCCNC(=O)OCc1ccccc1Cl)CCC(=O)NCCNC(=O)[C@@H](N)CCCCNC(=O)OCc1ccccc1Cl [Compound 101]	0.93	10.0	51	12.0	–
N[C@@H](CCCCNC(=O)OCc1ccccc1Cl)C(=O)NCCNC(=O)CCN(CCCC(C(=O)Nc1cccnc1)N(CCC(=O)NCCNC(=O)[C@@H](N)CCCCNC(=O)OCc1ccccc1Cl)CCC(=O)NCCNC(=O)[C@@H](N)CCCCNC(=O)OCc1ccccc1Cl)CCC(=O)NCCNC(=O)[C@@H](N)CCCCNC(=O)OCc1ccccc1Cl (stereo partly drawn) [Compound 92]	–	–	–	–	Live cells (%) ([5]; concentration 7.14 μMol dm^−3): 97.7%
N[C@@H](CCCCNC(=O)OCc1ccccc1)C(=O)NCCNC(=O)CCN(CCCC[C@@H](C(=O)NCCc1c[nH]c2ccccc12)N(CCC(=O)NCCNC(=O)[C@@H](N)CCCCNC(=O)OCc1ccccc1)CCC(=O)NCCNC(=O)[C@@H](N)CCCCNC(=O)OCc1ccccc1)CCC(=O)NCCNC(=O)[C@@H](N)CCCCNC(=O)OCc1ccccc1 [Compound 103]	12.9	74	149	111	Live cells (%) ([5]; concentration 15.0 μMol dm^−3): 96.5%
NCCCC[C@H](NC(=O)OCc1ccccc1Cl)C(=O)NCCNC(=O)CCN(CCCC[C@@H](C(=O)NCCc1c[nH]c2ccccc12)N(CCC(=O)NCCNC(=O)[C@H](CCCCN)NC(=O)OCc1ccccc1Cl)CCC(=O)NCCNC(=O)[C@H](CCCCN)NC(=O)OCc1ccccc1Cl)CCC(=O)NCCNC(=O)[C@H](CCCCN)NC(=O)OCc1ccccc1Cl [Compound 100]	0.93	5.81	41	3.71	Live cells (%) ([5]; concentration 25.7 μMol dm^−3): 0%
NCCCC[C@H](NC(=O)OCc1ccccc1)C(=O)NCCNC(=O)CCN(CCCC[C@@H](C(=O)NCCc1c[nH]c2ccccc12)N(CCC(=O)NCCNC(=O)[C@H](CCCCN)NC(=O)OCc1ccccc1)CCC(=O)NCCNC(=O)[C@H](CCCCN)NC(=O)OCc1ccccc1)CCC(=O)NCCNC(=O)[C@H](CCCCN)NC(=O)OCc1ccccc1 [Compound 102]	–	–	–	–	Minimal inhibitory concentration (MIC) ([1]; ATCC 25923, 18 h): 17.3 μM/L; Minimal inhibitory concentration (MIC) ([2]; ATTC 43300, 18 h): 149 μM/L; Minimal inhibitory concentration (MIC) ([3]; ATTC 27853, 18 h): 149 μM/L; Minimal inhibitory concentration (MIC) ([4]; ATTC 25922, 18 h): 149 μM/L; Live cells (%) ([5]; concentration 13.6 μMol dm^−3): 98.5%
N[C@@H](CCCCNC(=O)OCc1ccccc1Cl)C(=O)NCCNC(=O)CCN(CCC[C@@H](C(=O)NCCc1c[nH]cn1)N(CCC(=O)NCCNC(=O)[C@@H](N)CCCCNC(=O)OCc1ccccc1Cl)CCC(=O)NCCNC(=O)[C@@H](N)CCCCNC(=O)OCc1ccccc1Cl)CCC(=O)NCCNC(=O)[C@@H](N)CCCCNC(=O)OCc1ccccc1Cl [Compound 108]	–	–	–	–	Live cells (%) ([5]; concentration 42.1 μMol dm^−3): 94.9%
NCCCC[C@H](NC(=O)OCc1ccccc1Cl)C(=O)NCCNC(=O)CCN(CCCC(C(=O)Nc1cccnc1)N(CCC(=O)NCCNC(=O)[C@H](CCCCN)NC(=O)OCc1ccccc1Cl)CCC(=O)NCCNC(=O)[C@H](CCCCN)NC(=O)OCc1ccccc1Cl)CCC(=O)NCCNC(=O)[C@H](CCCCN)NC(=O)OCc1ccccc1Cl (stereo partly drawn) [Compound 93]	–	–	–	–	Live cells (%) ([5]; concentration 13.65 μMol dm^−3): 95.8%
NCCCC[C@H](NC(=O)OCc1ccccc1Cl)C(=O)NCCNC(=O)CCN(CCC[C@@H](C(=O)NCCc1c[nH]c2ccccc12)N(CCC(=O)NCCNC(=O)[C@H](CCCCN)NC(=O)OCc1ccccc1Cl)CCC(=O)NCCNC(=O)[C@H](CCCCN)NC(=O)OCc1ccccc1Cl)CCC(=O)NCCNC(=O)[C@H](CCCCN)NC(=O)OCc1ccccc1Cl [Compound 96]	1.87	12.1	51	12.1	Live cells (%) ([5]; concentration 33.6 μMol dm^−3): 11.6%
NCCCC[C@H](NC(=O)OCc1ccccc1Cl)C(=O)NCCNC(=O)CCN(CCC(=O)NCCNC(=O)[C@H](CCCCN)NC(=O)OCc1ccccc1Cl)C[C@@H](C(=O)NCCc1c[nH]c2ccccc12)N(CCC(=O)NCCNC(=O)[C@H](CCCCN)NC(=O)OCc1ccccc1Cl)CCC(=O)NCCNC(=O)[C@H](CCCCN)NC(=O)OCc1ccccc1Cl [Compound 98]	0.95	8.06	52	12.3	Live cells (%) ([5]; concentration 4.3 μMol dm^−3): 97.7%
NCCCC[C@H](NC(=O)OCc1ccccc1Br)C(=O)NCCNC(=O)CCN(CCCC[C@@H](C(=O)NCCc1c[nH]c2ccccc12)N(CCC(=O)NCCNC(=O)[C@H](CCCCN)NC(=O)OCc1ccccc1Br)CCC(=O)NCCNC(=O)[C@H](CCCCN)NC(=O)OCc1ccccc1Br)CCC(=O)NCCNC(=O)[C@H](CCCCN)NC(=O)OCc1ccccc1Br [Compound 104]	3.43	30	64	30	Live cells (%) ([5]; concentration 21.4 μMol dm^−3): 73.6%
NCCC[C@H](NC(=O)OCc1ccccc1Cl)C(=O)NCCNC(=O)CCN(CCCC[C@@H](C(=O)NCCc1c[nH]c2ccccc12)N(CCC(=O)NCCNC(=O)[C@H](CCCN)NC(=O)OCc1ccccc1Cl)CCC(=O)NCCNC(=O)[C@H](CCCN)NC(=O)OCc1ccccc1Cl)CCC(=O)NCCNC(=O)[C@H](CCCN)NC(=O)OCc1ccccc1Cl [Compound 106]	3.82	25	71	16.7	Live cells (%) ([5]; concentration 10.0 μMol dm^−3): 87.7%
NCCCC[C@H](NC(=O)OCc1ccccc1Cl)C(=O)NCCNC(=O)CCN(CCC[C@@H](C(=O)NCCc1c[nH]cn1)N(CCC(=O)NCCNC(=O)[C@H](CCCCN)NC(=O)OCc1ccccc1Cl)CCC(=O)NCCNC(=O)[C@H](CCCCN)NC(=O)OCc1ccccc1Cl)CCC(=O)NCCNC(=O)[C@H](CCCCN)NC(=O)OCc1ccccc1Cl [Compound 107]	–	–	–	–	Live cells (%) ([5]; concentration 47.1 μMol dm^−3): 91.1%
N[C@@H](CCCCNC(=O)OCc1ccccc1Cl)C(=O)NCCNC(=O)CCN(CCC(=O)NCCNC(=O)[C@@H](N)CCCCNC(=O)OCc1ccccc1Cl)CC[C@@H](C(=O)NCCc1c[nH]c2ccccc12)N(CCC(=O)NCCNC(=O)[C@@H](N)CCCCNC(=O)OCc1ccccc1Cl)CCC(=O)NCCNC(=O)[C@@H](N)CCCCNC(=O)OCc1ccccc1Cl [Compound 95]	1.88	32	51	32	–
N[C@@H](CCCCNC(=O)OCc1ccccc1Cl)C(=O)NCCNC(=O)CCN(CCC[C@@H](C(=O)NCCc1c[nH]c2ccccc12)N(CCC(=O)NCCNC(=O)[C@@H](N)CCCCNC(=O)OCc1ccccc1Cl)CCC(=O)NCCNC(=O)[C@@H](N)CCCCNC(=O)OCc1ccccc1Cl)CCC(=O)NCCNC(=O)[C@@H](N)CCCCNC(=O)OCc1ccccc1Cl [Compound 97]	0.93	20.4	60	7.9	–
N[C@@H](CCCCNC(=O)OCc1ccccc1Cl)C(=O)NCCNC(=O)CCN(CCC(=O)NCCNC(=O)[C@@H](N)CCCCNC(=O)OCc1ccccc1Cl)C[C@@H](C(=O)NCCc1c[nH]c2ccccc12)N(CCC(=O)NCCNC(=O)[C@@H](N)CCCCNC(=O)OCc1ccccc1Cl)CCC(=O)NCCNC(=O)[C@@H](N)CCCCNC(=O)OCc1ccccc1Cl [Compound 99]	0.6	3.32	52	7.0	–
NCCCC[C@H](NC(=O)OCc1ccccc1Cl)C(=O)NCCNC(=O)CCN(CCC(=O)NCCNC(=O)[C@H](CCCCN)NC(=O)OCc1ccccc1Cl)CC[C@@H](C(=O)NCCc1c[nH]c2ccccc12)N(CCC(=O)NCCNC(=O)[C@H](CCCCN)NC(=O)OCc1ccccc1Cl)CCC(=O)NCCNC(=O)[C@H](CCCCN)NC(=O)OCc1ccccc1Cl [Compound 94]	0.94	10.12	70	12.2	Live cells (%) ([5]; concentration 12.13 μMol dm^−3): 88.4%
